Laboratory results as given in article PMC3407927, “Cyclisation Increases the Stability of the Sea Anemone Peptide APETx2 but Decreases Its Activity at Acid-Sensing Ion Channel 3” (Marine Drugs, 2012).
Where a SMILES comes first, the peptide text is derived from it. Bridges are numbered along the chain shown (N, C = ends). Where no end group is shown, it is not given here.

How the values were obtained:
rat ASIC3 = target: T1, rat ASIC3 (Rattus norvegicus, UniProt O35240); assay: Two-electrode voltage-clamp electrophysiology on Xenopus laevis oocytes expressing homomeric rat ASIC3; type: cell-based; conditions: n = 6
T1 construct: expressed in transfected cells; host or cells: Xenopus laevis oocytes (cRNA injection)
T1 sequence (O35240 1-533): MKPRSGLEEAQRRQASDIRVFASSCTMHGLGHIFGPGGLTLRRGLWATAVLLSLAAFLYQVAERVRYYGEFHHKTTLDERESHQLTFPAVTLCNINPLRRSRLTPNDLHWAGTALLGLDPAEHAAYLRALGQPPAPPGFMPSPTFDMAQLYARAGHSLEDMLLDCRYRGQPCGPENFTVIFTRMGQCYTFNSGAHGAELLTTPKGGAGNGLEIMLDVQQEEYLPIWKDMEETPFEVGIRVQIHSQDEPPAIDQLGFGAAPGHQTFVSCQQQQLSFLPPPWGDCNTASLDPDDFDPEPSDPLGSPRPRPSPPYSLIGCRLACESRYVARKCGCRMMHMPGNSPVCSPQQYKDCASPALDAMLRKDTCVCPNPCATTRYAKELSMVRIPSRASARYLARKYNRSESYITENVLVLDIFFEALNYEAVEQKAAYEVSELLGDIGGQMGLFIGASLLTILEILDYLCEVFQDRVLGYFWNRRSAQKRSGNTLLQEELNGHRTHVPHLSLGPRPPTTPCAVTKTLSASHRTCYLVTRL
Description: The biological activity of wild-type APETx2 was compared with that of truncations and cyclic analogues using voltage-clamp electrophysiology experiments on Xenopus laevis oocytes expressing homomeric rat ASIC3. […] At 1000 nM, a concentration of APETx2 that normally causes >90% inhibition of ASIC3 [18], all three cyclic analogues had little activity (~10% inhibition, n = 6) (Figure 5). Although a full concentration-effect curve was not obtained, there is an approximate 125-fold decrease in activity for all three cyclic analogues based on the concentration that causes 10% inhibition (~8 nM for wild-type APETx2 vs. 1000 nM for cyclic APETx2).
Oocytes were obtained from Xenopus laevis frogs and treated with collagenase (Sigma type I) for defolliculation. cRNA of rat ASIC3 was synthesised using an mMessage mMachine cRNA transcription kit and healthy stage V–VI oocytes injected with 4 ng rat ASIC3 cRNA (40 nL of 100 ng/μL). Oocytes were kept at 17 °C in ND96 solution (96 mM NaCl, 2 mM KCl, 1 mM CaCl2, 2 mM MgCl2, 5 mM HEPES, 5 mM pyruvic acid, 50 µg/mL gentamicin, 2.5% fetal horse serum, pH 7.4). Membrane currents were recorded 2–6 days post cRNA injection under voltage-clamp (Axoclamp 900 A amplifier, Molecular Devices, Sunnyvale, CA, USA) using two standard glass microelectrodes with resistances of 0.5–1 MΩ when filled with 3 M KCl solution. […]

trypsin = assay: Trypsin stability assay; type: in vitro ADME; conditions: 5 mM EDTA, pH 8.0, 20 μM peptide, 37 °C, RP-HPLC; for Trypsin stability assay: half-life / half-life at 20 μM: 1 μg trypsin in 500 μL 20 mM Tris, samples 0-48 h, each time point in triplicate
Description: The following protocol was modified from a previous published method: Wild-type APETx2 and cyclic analogues were diluted into 500 μL trypsin buffer (20 mM Tris, 5 mM EDTA, pH 8.0) to a final concentration of 20 μM. Reactions were started by adding 1 μg trypsin to each sample. A 35-μL sample was used for each time point and quenched by mixing with 35 μL 0.2% TFA. Protease digestion was monitored using analytical RP-HPLC. Reactions were incubated at 37 °C and samples were taken at 0, 0.5, 1, 2, 4, 12, 24 and 48 h. All time points were investigated in triplicate.

[1] = Solution stability under lab storage conditions; type: physicochemical; conditions: dissolved in water and kept at 4 °C; unpublished observations
pepsin [2] = target: T2, pepsin (Sus scrofa, UniProt P00791); assay: Simulated gastric fluid (SGF) stability assay; type: in vitro ADME; conditions: 20 μM peptide, RP-HPLC
T2 construct: purchased Sigma Aldrich
Description: (§1) The following protocol was modified from a published method: Wild-type APETx2 and cyclic analogues were separately diluted into 350 μL SGF (6.2 mg/mL pepsin, 30 mM NaCl, pH 1.9) to a final peptide concentration of 20 μM. Reactions were started with the addition of the peptides and the mixtures were incubated at 37 °C. 35-μL samples were taken at 0, 15, 30, 45, 60, 120, 240 and 480 min and mixed with 5 μL pepstatin A to quench the reaction (3.3 mg/mL dissolved in ethanol). Progress was monitored using RP-HPLC and each time point was investigated in triplicate.

pepsin [3] = test system: T3, pepsin; assay: Simulated gastric fluid (SGF) stability assay; type: in vitro ADME; conditions: simulated gastric fluid (SGF) with pepsin; SGF: 6.2 mg/mL pepsin, 30 mM NaCl, pH 1.9; 20 μM peptide; 37 °C; samples 0-480 min; RP-HPLC; each time point in triplicate
T3 construct: purchased Sigma Aldrich
Description: as §1

T2 sequence (P00791 60-385): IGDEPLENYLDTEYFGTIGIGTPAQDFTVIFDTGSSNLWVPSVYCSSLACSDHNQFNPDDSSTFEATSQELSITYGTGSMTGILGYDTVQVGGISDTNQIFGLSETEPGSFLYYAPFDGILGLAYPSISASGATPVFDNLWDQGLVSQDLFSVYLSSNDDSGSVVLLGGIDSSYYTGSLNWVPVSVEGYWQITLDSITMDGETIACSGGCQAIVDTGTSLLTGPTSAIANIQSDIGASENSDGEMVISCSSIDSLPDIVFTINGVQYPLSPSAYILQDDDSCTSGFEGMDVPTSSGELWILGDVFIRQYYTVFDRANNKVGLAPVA

Molecule: CC[C@H](C)[C@@H]1NC(=O)CNC(=O)[C@H](CCCCN)NC(=O)[C@H](CO)NC(=O)[C@H](CC(N)=O)NC(=O)CNC(=O)[C@@H]2CSSC[C@@H]3NC(=O)[C@H](CO)NC(=O)CNC(=O)[C@H]([C@@H](C)O)NC(=O)[C@H](Cc4ccc(O)cc4)NC(=O)CNC(=O)[C@H](CCCNC(=N)N)NC(=O)[C@H](CC(=O)O)NC(=O)[C@H]([C@@H](C)O)NC(=O)[C@@H]4CCCN4C(=O)[C@H](CSSC[C@@H](C(=O)N[C@H](C(=O)N4CCC[C@H]4C(=O)N[C@@H](C)C(=O)N[C@@H](CC(=O)O)C(=O)O)[C@@H](C)O)NC(=O)[C@H](CSSC[C@H](NC(=O)[C@H](C)N)C(=O)N[C@@H](CO)C(=O)N2)NC(=O)[C@H]([C@@H](C)O)NC(=O)CNC(=O)[C@H](CC(C)C)NC(=O)[C@H](Cc2ccccc2)NC(=O)[C@H](Cc2ccc(O)cc2)NC(=O)[C@H](CCCNC(=N)N)NC3=O)NC(=O)[C@H](CO)NC(=O)[C@@H]2CCCN2C(=O)[C@H](CCCNC(=N)N)NC(=O)[C@H](Cc2ccc(O)cc2)NC(=O)[C@H](Cc2ccccc2)NC(=O)[C@H](Cc2c[nH]c3ccccc23)NC(=O)[C@H](Cc2ccc(O)cc2)NC1=O [APETx2_3–42] (H-ACSCGNSKGIYWFYRPSCPTDRGYTGSCRYFLGTCCTPAD-OH; disulfide 2-35, 4-28, 18-36)
- inhibition at 3 µM (rat ASIC3; 3 μM peptide, rat ASIC3 in Xenopus oocytes, read-out: inhibition of ASIC3 currents at 3 μM): ~13%

Molecule: GTACSCGNSKGIYWFYRPSCPTDRGYTGSCRYFLGTCCTPAD (disulfide 4-37, 6-30, 20-38) [APETx2_wt, APETx2]
- Trypsin stability assay: half-life (trypsin): 2.8 h
- Trypsin stability assay: half-life (trypsin; listed as wild-type APETx2): ~ 2.8 h
- remaining at 48 h, 20 μM (trypsin; trypsin in Tris/EDTA buffer, 48 h, 1 μg trypsin, 20 mM Tris, triplicate, read-out: peptide remaining intact after 48 h in the presence of trypsin): ~4%
- solution stability under lab storage conditions [1]: stable for months
- time within which peptide is almost totally digested in simulated gastric fluid (pepsin [2]; SGF 6.2 mg/mL pepsin, pH 1.9, 37 °C): ≤ 20 min
- Simulated gastric fluid stability assay: half-life (pepsin [2]; SGF: 6.2 mg/mL pepsin, 30 mM NaCl, pH 1.9, 37 °C, samples 0-480 min, each time point in triplicate): 5 min
- half-life at 20 μM (pepsin [3]): ~0.0833 h
- IC50 (rat ASIC3; Xenopus oocytes, clamped at −60 mV, pH 6 stimulus, ND96 with 0.1% BSA, RT, read-out: IC50 for inhibition of rASIC3 currents): 61 nM

Molecule: cyclo(ACSCGNSKGIYWFYRPSCPTDRGYTGSCRYFLGTCCTPADAGASGSAGT) (disulfide 2-35, 4-28, 18-36) [cAPETx2_7RL]
- half-life at 20 μM (trypsin; trypsin in Tris/EDTA buffer): 134 h
- half-life at 20 μM (pepsin [3]): 2.75 h

Molecule: cyclo(ACSCGNSKGIYWFYRPSCPTDRGYTGSCRYFLGTCCTPADGASGSAGT) (disulfide 2-35, 4-28, 18-36) [cAPETx2_6RL]
- half-life at 20 μM (trypsin; trypsin in Tris/EDTA buffer): 104 h
- half-life at 20 μM (pepsin [3]): 1.9 h

Molecule: cyclo(ACSCGNSKGIYWFYRPSCPTDRGYTGSCRYFLGTCCTPADSAGASGSAGT) (disulfide 2-35, 4-28, 18-36) [cAPETx2_8RL]
- half-life at 20 μM (trypsin; trypsin in Tris/EDTA buffer): 131 h
- half-life at 20 μM (pepsin [3]): 1.67 h
